In publication PMC3914206:

Legend:
Format in all cases: binding
[1] = target: T1, panel of 442 kinases (Homo sapiens, UniProt Q9UPE1); settings: kinase SRPK3; compound concentration 10 µM
T1 construct: purchased KINOMEscan
Description: (§1) We assessed the selectivity of members of this scaffold using the KINOMEscan methodology across a near comprehensive panel of 442 kinases [[18,27]].

[2] = target: T2, panel of 442 kinases (Homo sapiens, UniProt Q99640); settings: Compound Concentration 10 µM
T2 construct: purchased KINOMEscan
T2 sequence (Q99640 1-499): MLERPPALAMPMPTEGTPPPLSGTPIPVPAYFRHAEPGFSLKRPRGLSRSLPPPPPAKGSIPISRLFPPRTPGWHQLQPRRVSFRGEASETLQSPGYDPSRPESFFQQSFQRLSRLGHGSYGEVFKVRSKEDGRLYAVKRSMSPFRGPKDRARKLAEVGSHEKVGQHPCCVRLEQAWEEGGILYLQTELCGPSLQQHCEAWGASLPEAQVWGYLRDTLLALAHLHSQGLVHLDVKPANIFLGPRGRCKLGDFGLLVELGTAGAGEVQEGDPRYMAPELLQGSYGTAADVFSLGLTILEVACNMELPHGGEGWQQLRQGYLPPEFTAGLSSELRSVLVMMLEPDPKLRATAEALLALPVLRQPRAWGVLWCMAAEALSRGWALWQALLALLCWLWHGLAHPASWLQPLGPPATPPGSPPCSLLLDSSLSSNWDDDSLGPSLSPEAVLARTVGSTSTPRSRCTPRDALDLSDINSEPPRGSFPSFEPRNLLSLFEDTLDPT
Description: as §1

[3] = target: T3, panel of 442 kinases (Homo sapiens, UniProt O15075); settings: Compound Concentration 10 µM
T3 construct: purchased KINOMEscan
Description: as §1

T3 sequence (O15075 whole entry): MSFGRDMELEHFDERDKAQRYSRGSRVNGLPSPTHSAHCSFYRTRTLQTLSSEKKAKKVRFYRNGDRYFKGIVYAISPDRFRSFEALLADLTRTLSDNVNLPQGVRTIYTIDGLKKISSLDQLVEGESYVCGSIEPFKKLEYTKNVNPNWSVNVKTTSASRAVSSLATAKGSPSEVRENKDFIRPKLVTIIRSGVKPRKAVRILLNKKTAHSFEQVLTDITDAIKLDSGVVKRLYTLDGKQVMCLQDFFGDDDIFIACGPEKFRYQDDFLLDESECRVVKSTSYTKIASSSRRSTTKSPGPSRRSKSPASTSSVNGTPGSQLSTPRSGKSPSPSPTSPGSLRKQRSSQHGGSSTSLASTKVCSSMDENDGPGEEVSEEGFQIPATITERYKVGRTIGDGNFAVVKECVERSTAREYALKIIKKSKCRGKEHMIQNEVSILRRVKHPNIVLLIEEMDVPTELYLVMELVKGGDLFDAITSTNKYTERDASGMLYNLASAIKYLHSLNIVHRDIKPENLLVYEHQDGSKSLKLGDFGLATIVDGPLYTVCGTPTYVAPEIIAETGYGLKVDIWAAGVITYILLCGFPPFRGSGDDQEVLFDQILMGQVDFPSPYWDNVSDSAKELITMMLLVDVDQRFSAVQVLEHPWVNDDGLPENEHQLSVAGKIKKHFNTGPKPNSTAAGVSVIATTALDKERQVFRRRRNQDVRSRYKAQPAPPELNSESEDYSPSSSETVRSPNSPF
T1 sequence (Q9UPE1 whole entry): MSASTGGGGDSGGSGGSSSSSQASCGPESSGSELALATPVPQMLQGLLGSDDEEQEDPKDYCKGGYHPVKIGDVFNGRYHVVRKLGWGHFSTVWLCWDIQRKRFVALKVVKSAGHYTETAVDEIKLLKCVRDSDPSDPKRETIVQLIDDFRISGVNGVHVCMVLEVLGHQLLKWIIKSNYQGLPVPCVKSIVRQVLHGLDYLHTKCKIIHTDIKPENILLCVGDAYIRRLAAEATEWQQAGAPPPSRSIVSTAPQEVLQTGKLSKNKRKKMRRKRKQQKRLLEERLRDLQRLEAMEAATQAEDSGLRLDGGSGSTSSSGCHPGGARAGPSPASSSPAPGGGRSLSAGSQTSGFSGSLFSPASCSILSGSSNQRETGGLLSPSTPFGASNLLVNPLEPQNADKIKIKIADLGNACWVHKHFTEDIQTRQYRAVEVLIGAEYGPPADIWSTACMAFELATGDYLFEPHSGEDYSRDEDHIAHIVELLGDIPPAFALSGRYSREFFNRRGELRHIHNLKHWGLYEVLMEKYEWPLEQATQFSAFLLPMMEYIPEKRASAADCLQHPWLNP

| Structure (SMILES) | % Ctrl, SRPK3 [1] [% Ctrl] | KINOMEscan: PKMYT1 [2] | KINOMEscan: DCAMKL1 [3] |
| --- | --- | --- | --- |
| CCOc1cc(C(=O)N2CCC(N3CCN(C)CC3)CC2)ccc1Nc1ncc2c(n1)N(C1CCCC1)c1ccccc1C(=O)N2C [Compound 26] | 100 | 100 | – |
| COc1cc(C(=O)N2CCC(N3CCN(C)CC3)CC2)ccc1Nc1ncc2c(n1)N(C1CCCC1)c1ccccc1C(=O)N2C [Compound 25, 11-cyclopentyl-2-((2-methoxy-4-(4-(4-methylpiperazin-1-yl)piperidine-1-carbonyl)phenyl)amino)-5-methyl-5H-benzo[e]pyrimido[5,4-b][1,4]diazepin-6(11H)-one] | 91 | 100 | 8.4 |
| COc1cc(C(=O)N2CCC(N3CCN(C)CC3)CC2)ccc1Nc1ncc2c(n1)N1CCc3cccc(c31)C(=O)N2C [Compound 24] | 91 | 70 | 6.4 |
| COc1cc(C(=O)N2CCC(N3CCN(C)CC3)CC2)ccc1Nc1ncc2c(n1)N(C)c1ccccc1C(=O)N2C [15 (LRRK2-IN-1)] | 72 | 80 | 4.2 |
